The results in this text go back to patent US7879858B2, “Substituted tetrahydropyrrolopyrazine compounds and the use thereof in pharmaceutical compositions” (Gruenenthal GmbH, priority 2006, dated 2011).

One test has as its target T1, Serotonin reuptake (Rattus norvegicus, UniProt P31652).
T1 construct: synaptosomes are freshly isolated from areas of the rat brain; from tissue; host or cells: rat brain synaptosomes (P2 fraction)
Put plainly: Inhibition of 5HT (serotonin) uptake in rat brain synaptosomes. Type of test: biochemical. Conditions: 10 μmol; synaptosomes from rat brain. As for the experimental part:
(§1) Biological Data Inhibition of NA and 5HT Uptake
(§2) In order to be able to carry out these in vitro studies, synaptosomes are freshly isolated from areas of the rat brain. In each case a so-called “P2” fraction prepared in accordance with the instructions of Gray and Whittaker (E. G. Gray and V. P. Whittaker (1962) J. Anat. 76, 79-88) is prepared. For the NA uptake, these vesicular particles are isolated from the hypothalamus of male rat brains. A detailed description of the method can be found in the literature (M. Ch. Frink, H.-H. Hennies, W. Englberger, M. Haurand and B. Wilffert (1996) Arzneim.-Forsch./Drug Res. 46 (III), 11, 1029-1036).

A further test has as its system NA reuptake. Briefly: Inhibition of NA (noradrenaline) uptake in rat hypothalamus synaptosomes. The test is classed as biochemical. Particulars: synaptosomes from hypothalamus of male rat brains. As for the experimental part:
as §1, §2

As usually defined, the inhibition is the relative decrease from the control value, in per cent. A lower inhibition goes with little suppression.

T1 sequence (P31652 whole entry): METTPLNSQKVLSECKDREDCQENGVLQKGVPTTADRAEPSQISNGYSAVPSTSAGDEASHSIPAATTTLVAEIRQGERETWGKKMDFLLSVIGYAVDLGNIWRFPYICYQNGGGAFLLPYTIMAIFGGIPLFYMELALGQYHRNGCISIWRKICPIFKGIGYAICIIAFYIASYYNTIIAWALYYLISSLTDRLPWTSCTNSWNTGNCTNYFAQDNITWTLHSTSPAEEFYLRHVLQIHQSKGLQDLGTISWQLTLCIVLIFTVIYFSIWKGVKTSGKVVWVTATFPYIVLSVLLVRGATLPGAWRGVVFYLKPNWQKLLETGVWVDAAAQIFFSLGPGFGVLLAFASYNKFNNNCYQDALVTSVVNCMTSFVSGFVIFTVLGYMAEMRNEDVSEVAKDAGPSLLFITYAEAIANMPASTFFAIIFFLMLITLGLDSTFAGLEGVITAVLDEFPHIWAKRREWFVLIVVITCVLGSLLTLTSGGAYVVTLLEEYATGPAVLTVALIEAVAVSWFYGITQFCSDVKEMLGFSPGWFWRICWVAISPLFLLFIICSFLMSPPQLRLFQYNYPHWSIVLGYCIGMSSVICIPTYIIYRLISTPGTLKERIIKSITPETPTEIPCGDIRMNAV

`CN(C)c1ccc(C2c3cccn3CCN2C(=O)c2cccs2)cc1` (stereo not drawn) [Example 53, (1-(4-(dimethylamino)phenyl)-3,4-dihydropyrrolo[1,2-a]pyrazin-2(1H)-yl)(thiophen-2-yl)methanone] gave an inhibition at 10 µM against Serotonin reuptake of 31%. In the test with NA reuptake, the “NA reuptake % inhibition [10 μmol]” value was found to be 26%. Taken in the same sequence, the figures for `CN(C)c1ccc(C2c3cccn3CCN2C(=O)c2ccccc2F)cc1` (stereo not drawn) [Example 51, (1-(4-(dimethylamino)phenyl)-3,4-dihydropyrrolo[1,2-a]pyrazin-2(1H)-yl)(2-fluorophenyl)methanone] were 43% and 19%. `O=C(c1ccco1)N1CCn2cccc2C1c1ccc2c(c1)OCCO2` (stereo not drawn) [Example 37, [1-(2,3-dihydro-benzo[1,4]dioxin-6-yl)-3,4-dihydro-1H-pyrrolo[1,2-a]pyrazin-2-yl]-furan-2-yl-methanone] displayed an inhibition at 10 µM at Serotonin reuptake of 55%. In the test on NA reuptake, the “NA reuptake % inhibition [10 μmol]” value worked out at 32%. On the same counts, the results for `O=C(c1cccs1)N1CCn2cccc2C1c1ccc(Cl)c(Cl)c1` (stereo not drawn) [Example 65, (1-(3,4-Dichlorophenyl)-3,4-dihydropyrrolo[1,2-a]pyrazin-2(1H)-yl)(thiophen-2-yl)methanone] are 43% and 49%. Consider `CC1c2cccn2CCN1C(=O)/C=C/c1ccc(SC(F)(F)F)cc1` (stereo not drawn) [Example 74, 1-(1-methyl-3,4-dihydropyrrolo[1,2-a]pyrazin-2(1H)-yl)-3-(4-(trifluoromethylthio)phenyl)prop-2-en-1-one], for which the inhibition at 10 µM against Serotonin reuptake stood at 32%. Turning to `O=C(c1ccc(F)cc1)N1CCn2cccc2C1c1ccc2c(c1)OCCO2` (stereo not drawn) [Example 38, [1-(2,3-dihydro-benzo[1,4]dioxin-6-yl)-3,4-dihydro-1H-pyrrolo[1,2-a]pyrazin-2-yl]-(4-fluoro-phenyl)-methanone], on Serotonin reuptake, 10 µM produced 58% inhibition. The “NA reuptake % inhibition [10 μmol]” value in the test with NA reuptake turned out to be 48%. On the same counts, the results for `COc1ccccc1C1c2cccn2CCN1C(=O)c1ccc2c(c1)OCO2` (stereo not drawn) [Example 3, benzo[1,3]dioxol-5-yl-[1-(2-methoxy-phenyl)-3,4-dihydro-1H-pyrrolo[1,2-a]pyrazin-2-yl]-methanone] are 86% and 29%. The molecule `Cc1ccc(C2c3cccn3CCN2C(=O)c2ccccc2F)cc1` (stereo not drawn) [Example 69, (2-fluorophenyl)(1-p-tolyl-3,4-dihydropyrrolo[1,2-a]pyrazin-2(1H)-yl)methanone] had an inhibition at 10 µM on Serotonin reuptake of 40%. Further, the “NA reuptake % inhibition [10 μmol]” value with NA reuptake stood at 12%. `Cc1ccccc1C(=O)N1CCn2cccc2C1c1ccc2c(c1)OCCO2` (stereo not drawn) [Example 34, [1-(2,3-dihydro-benzo[1,4]dioxin-6-yl)-3,4-dihydro-1H-pyrrolo[1,2-a]pyrazin-2-yl]-o-tolyl-methanone]: the inhibition at 10 µM against Serotonin reuptake came out at 52%. The “NA reuptake % inhibition [10 μmol]” value with NA reuptake is 22%. On the same counts, the results for `Cc1cccc(C2c3cccn3CCN2C(=O)c2cccs2)c1` (stereo not drawn) [Example 14, thiophen-2-yl(1-m-tolyl-3,4-dihydropyrrolo[1,2-a]pyrazin-2(1H)-yl)methanone] are 27% and 25%.

The molecule `Cc1ccccc1C(=O)N1CCn2cccc2C1c1ccc(F)cc1` (stereo not drawn) [Example 75, (1-(4-fluorophenyl)-3,4-dihydropyrrolo[1,2-a]pyrazin-2(1H)-yl)(o-tolyl)methanone] displayed an inhibition at 10 µM at Serotonin reuptake of 38%. Further, in the test with NA reuptake, the “NA reuptake % inhibition [10 μmol]” value is listed as 17%. On the same counts, the results for `COc1cccc(C2c3cccn3CCN2C(=O)c2ccco2)c1` (stereo not drawn) [Example 30, furan-2-yl(1-(3-methoxyphenyl)-3,4-dihydropyrrolo[1,2-a]pyrazin-2(1H)-yl)methanone] are 51% and 16%. Taken in the same sequence, the figures for `O=C(c1ccc2c(c1)OCO2)N1CCn2cccc2C1c1ccc(Cl)c(Cl)c1` (stereo not drawn) [Example 61, benzo[1,3]dioxol-5-yl-[1-(3,4-dichloro-phenyl)-3,4-dihydro-1H-pyrrolo[1,2-a]pyrazin-2-yl]-methanone] were 64% and 68%. Taken in the same sequence, the figures for `O=C(c1ccc2c(c1)OCO2)N1CCn2cccc2C1c1cccc(Cl)c1` (stereo not drawn) [Example 40, benzo[d][1,3]dioxol-5-yl(1-(3-chlorophenyl)-3,4-dihydropyrrolo[1,2-a]pyrazin-2(1H)-yl)methanone] were 38% and 41%. `CCCCCC(=O)N1CCn2cccc2C1c1cccs1` (stereo not drawn) [Example 78, 1-(1-(thiophen-2-yl)-3,4-dihydropyrrolo[1,2-a]pyrazin-2(1H)-yl)hexan-1-one] returned an inhibition at 10 µM against Serotonin reuptake of 51%. For `COc1ccccc1C(=O)N1CCn2cccc2C1c1ccccc1OC` (stereo not drawn) [Example 4, (2-methoxy-phenyl)-[1-(2-methoxy-phenyl)-3,4-dihydro-1H-pyrrolo[1,2-a]pyrazin-2-yl]-methanone], the inhibition at 10 µM against Serotonin reuptake was 82%. Besides, the “NA reuptake % inhibition [10 μmol]” value with NA reuptake is given as 13%. Taken in the same sequence, the figures for `Cc1ccccc1C(=O)N1CCn2cccc2C1c1ccc(N(C)C)cc1` (stereo not drawn) [Example 50, (1-(4-(dimethylamino)phenyl)-3,4-dihydropyrrolo[1,2-a]pyrazin-2(1H)-yl)(o-tolyl)methanone] were 41% and 14%. Taken in the same sequence, the figures for `O=C(CCC1CCCCC1)N1CCn2cccc2C1c1cccs1` (stereo not drawn) [Example 86, 3-cyclohexyl-1-(1-(thiophen-2-yl)-3,4-dihydropyrrolo[1,2-a]pyrazin-2(1H)-yl)propan-1-one] were 53% and 19%.

`Cc1ccccc1C(=O)N1CCn2cccc2C1c1ccccc1C` (stereo not drawn) [Example 11, o-tolyl(1-o-tolyl-3,4-dihydropyrrolo[1,2-a]pyrazin-2(1H)-yl)methanone]: at Serotonin reuptake, the inhibition at 10 µM amounted to 38%. On to `O=C(C1CCC1)N1CCn2cccc2C1c1ccc(Cl)c(Cl)c1` (stereo not drawn) [Example 66, cyclobutyl(1-(3,4-dichlorophenyl)-3,4-dihydropyrrolo[1,2-a]pyrazin-2(1H)-yl)methanone], for which the inhibition at 10 µM against Serotonin reuptake is 43%. Besides, the “NA reuptake % inhibition [10 μmol]” value with NA reuptake was 32%. On the same counts, the results for `O=C(c1cccc(F)c1)N1CCn2cccc2C1c1ccccc1` (stereo not drawn) [Example 23, (3-fluorophenyl)(1-phenyl-3,4-dihydropyrrolo[1,2-a]pyrazin-2(1H)-yl)methanone] are 42% and 41%. On the same counts, the results for `O=C(/C=C/c1ccccc1)N1CCn2cccc2C1c1cccs1` (stereo not drawn) [Example 72, 3-phenyl-1-(1-(thiophen-2-yl)-3,4-dihydropyrrolo[1,2-a]pyrazin-2(1H)-yl)prop-2-en-1-one] are 28% and 23%. On the same counts, the results for `COc1ccccc1C1c2cccn2CCN1C(=O)C1CCCC1` (stereo not drawn) [Example 2, cyclopentyl-[1-(2-methoxy-phenyl)-3,4-dihydro-1H-pyrrolo[1,2-a]pyrazin-2-yl]-methanone] are 79% and 36%. Turning to `CC(=O)N1CCn2cccc2C1c1cccs1` (stereo not drawn) [Example 83, 1-(1-(thiophen-2-yl)-3,4-dihydropyrrolo[1,2-a]pyrazin-2(1H)-yl)ethanone], at 10 µM the inhibition at Serotonin reuptake was 16%. On Serotonin reuptake, `CN(C)c1ccc(C2c3cccn3CCN2C(=O)C2CC2)cc1` (stereo not drawn) [Example 52, cyclopropyl(1-(4-(dimethylamino)phenyl)-3,4-dihydropyrrolo[1,2-a]pyrazin-2(1H)-yl)methanone] gave an inhibition at 10 µM of 27%. Further, in the test with NA reuptake, the “NA reuptake % inhibition [10 μmol]” value amounted to 16%. In the case of `COc1ccccc1C1c2cccn2CCN1C(=O)c1cccc(F)c1` (stereo not drawn) [Example 1, (3-fluorophenyl)(1-(2-methoxyphenyl)-3,4-dihydropyrrolo[1,2-a]pyrazin-2(1H)-yl)methanone], the inhibition at 10 µM against Serotonin reuptake is 26%. The same measure, in the same setting: in the case of `O=C(CCCc1ccccc1)N1CCn2cccc2C1c1cccs1` (stereo not drawn) [Example 87, 4-phenyl-1-(1-(thiophen-2-yl)-3,4-dihydropyrrolo[1,2-a]pyrazin-2(1H)-yl)butan-1-one] it was 17%; in that of `CCC(OC)C(=O)N1CCn2cccc2C1c1cccs1` (stereo not drawn) [Example 55, 2-methoxy-1-(1-(thiophen-2-yl)-3,4-dihydropyrrolo[1,2-a]pyrazin-2(1H)-yl)butan-1-one], 28%. Same read-out and setting: for `CCC(C)C(=O)N1CCn2cccc2C1c1ccccc1C` (stereo not drawn) [Example 31, 2-methyl-1-(1-o-tolyl-3,4-dihydropyrrolo[1,2-a]pyrazin-2(1H)-yl)butan-1-one] the value was 26%; for `CC(C)(C)CC(=O)N1CCn2cccc2C1c1cccs1` (stereo not drawn) [Example 85, 3,3-dimethyl-1-(1-(thiophen-2-yl)-3,4-dihydropyrrolo[1,2-a]pyrazin-2(1H)-yl)butan-1-one], 12%; for `CCC(C)C(=O)N1CCn2cccc2C1c1ccccc1OC` (stereo not drawn) [Example 48, 1-(1-(2-methoxyphenyl)-3,4-dihydropyrrolo[1,2-a]pyrazin-2(1H)-yl)-2-methylbutan-1-one], 27%. In the case of `O=C(c1ccccc1)N1CCn2cccc2C1c1cccs1` (stereo not drawn) [Example 82, phenyl(1-(thiophen-2-yl)-3,4-dihydropyrrolo[1,2-a]pyrazin-2(1H)-yl)methanone], the “NA reuptake % inhibition [10 μmol]” value in the test on NA reuptake was 35%. The molecule `CC1c2cccn2CCN1C(=O)/C=C/c1ccc(F)cc1` (stereo not drawn) [Example 73, 3-(4-fluorophenyl)-1-(1-methyl-3,4-dihydropyrrolo[1,2-a]pyrazin-2(1H)-yl)prop-2-en-1-one] showed an inhibition at 10 µM on Serotonin reuptake of 25%.
